Where a name gives a salt, the structure may show the parent alone.
Tests used:
[1] = system: formalin-induced nociceptive behaviors (flinches, licking); test: Formalin Paw Test; assay type: in vivo; details: Rattus norvegicus, po, male rats, dose at which control values are inhibited by 50%
Experimental: Formalin Paw Test (Ref: Carlton S M and Zhou S: Attenuation of formalin-induced nociceptive behaviors following local peripheral injection of gabapeptin. Pain 76, 201-207, 1998). Male rats (Chbb: THOM) weighing 250-300 grams are used. 20 μl of a 2% formaldehyde solution is injected into the plantar region of the right hind paw. Immediately after, the number of flinches (twitches of the affected hind paw) and the length of time spent licking the affected paw are recorded over a period of one hour. After 5 minutes in each case the values are grouped together into epochs. From the epoch values, time-effect curves for flinches and licking are plotted. Typically, two phases of formalin effect are observed (flinches, licking). A first phase lasting 0-10 minutes and a second phase lasting 10-60 minutes. Between the two phases the number of flinches and duration of licking fall towards 0 (interphase). From the time-effect curves the areas under the curve for the first phase and for the second phase are determined. Usually, 5 animals are used for each control, placebo and dose of substance. The results of the doses of substance are compared with those of the controls and ED50 values are calculated. The ED50 is the dose at which the control values are inhibited by 50%.

[2] = system: neuropathic pain (tactile allodynia, thermal hyperalgesia); test: test models for neuropathic pain in the rat; assay type: in vivo; details: neuropathic pain models in the rat (Bennett and Xie; Seltzer et al.)
Description: (1) Bennett G J and Xie Y-K. A peripheral mononeuropathy in rat that produces disorders of pain sensation like those seen in man. Pain 33, 87-107, […]. (2) Seltzer, Z., Dubner R. and Shir, Y. A novel behavioral model of neuropathic pain disorder. Pain 43, 205-218, 1990.

[3] = system: Tetrodotoxin-sensitive currents; assay type: cell-based, rat; details: read-out: IC50 tetrodotoxin-sensitive currents; neurone cultures from the posterior root ganglions of adult rats

Row | Structure (SMILES) | ED50 [1] [mg/kg] | tactile allodynia [2] | thermal hyperalgesia [2] | IC50 [3] [µM]
1 | Nc1c(Br)cc(Br)cc1CN[C@H]1CC[C@H](O)CC1 [ambroxol hydrochloride] | 70 | – | – | –
2 | Nc1c(Br)cc(Br)cc1CN[C@H]1CC[C@H](O)CC1 [ambroxol, trans-4-(2-amino-3,5-dibrombenzylamino)-cyclohexanol] | – | reduced the tactile allodynia | reduced | > 100
